Results reported in patent US5994303A, “Use of insulin and IGF-I” (Chiron Corporation, priority 1994, dated 1999).
Entries after “also recorded” stand apart in the source; their conditions may differ.

Assays:
Male Sprague-Dawley rats [1] = assay: Example 2: dexamethasone-treated rats infused with insulin, rhGH, rhIGF-I and combinations; feed intake, nitrogen digestion and retention, serum urea; format: in vivo, rat; conditions: for Nitrogen balance / nitrogen wasting induced by dexamethasone (in words) / Relative nitrogen retention (retained N/digested N x 100) / Feed intake / feed consumption (in words): 8 days infusion; for Nitrogen balance / nitrogen wasting induced by dexamethasone (in words): Dex 26 ug/day with or without peptides; for Relative nitrogen retention (retained N/digested N x 100): Dex 26 ug/day with peptides: insulin 39, rhGH 360, rhIGF-I 500 ug/day, mean, pooled SE
Description: On day zero the rats were anaesthetized intraperitoneally with 0.4 ml per 100 g body weight of a mixture of Rompun (20 mg·ml^-1), Ketalar (50 mg·ml^-1) and Saline (0.9%) in 1:2:3 volume proportions. The hair on the back of the rats was shaved off and the exposed skin carefully washed with 0.05% chlorhexidine (Pharmacia, Stockholm, Sweden) and 0.4% jodopax (Molnlycke, Goteborg, Sweden), both being diluted in 70% alcohol.
Two mutually parallel incisions, each of 15 mm in length, were then made along the dorsal midline. The incisions penetrated the epidermis, dermis and subcutaneous muscle but left the deep fascia intact. Two subcutaneous pockets were made on both sides of the incisions by separating the subcutaneous muscle from the deep fascia. One (Exp. I) or two (Exp. 2) mini-pumps were implanted in each pocket. The wounds were closed with sutures 4-0 Johnson & Johnson).
Osmotic mini-pumps (Alzet 2001, Alza Corporation, Palo Alto, USA) releasing 1 μl·h^-1 for 8 days were used for continuous delivery of hormones and Dex to the animals. The pumps were filled to a volume of 0.22 ml with solutions of rhGH (14.4 mg·ml^-1, Genotropin®, Pharmacia), rhIGF-I (20 mg·ml^-1, Igef®, Pharmacia, Kabi Peptide Hormones, Stockholm, Sweden), insulin (1.57 mg/ml, Actrapid®, Novo, Copenhagen, Denmark), Dex (1.04 mg·ml^-1, Decadron, Merck Sharp & Dohme International, Rathway, USA) or Saline (0.9%). Two (Example 1) or four (Example 2) pumps combined as described above were implanted in each rat. Implantation of the pumps was performed under strictly aseptic conditions.
Total feed intake was registered throughout the full 8 day experimental period. Urine and faeces were collected daily, pooled and kept at -20° C. until analysed. Excreta was collected by housing the animals in individual metabolism cages that were specially designed for the separation of urine and faeces. In order to inhibit urease-activity in the urine, 1 ml of 5% sulphuric acid was pipetted every morning in the collection vessels. The 24 hour collections of urine were pooled individually for each treatment period and immediately frozen after the collection. Similarly, the samples of faeces were also pooled individually for each treatment period and kept frozen (-20° C.) until analysis.
Blood samples were taken on day zero and on the last day of the experiment. During anaesthesia, blood was withdrawn quickly from the orbital plexus by using a glass capillary. On each sampling occasion 0.75 ml blood was taken 5 from each animal. One third (0.25 ml) of the blood sample was collected in a microtainer tube containing EDTA (Beckton and Dickinson) for analysis of glucose. Serum was prepared from the remaining blood sample (0.5 ml) in accordance with standard methods and analysed for urea.
Urea in serum was determined spectrophotometrically by using the Urea UV Uni-Kit II (Roche) with an autoanalyzer (Cobas Mira, Roche Co, Basel, Switzerland). Urea values were expressed in mmol/l. The total nitrogen content in urine was determined with the aid of the Antek Pyro-Chemilumicence Nitrogen System. The apparatus used comprised the Antek 7000N nitrogen analyser with Liquid Auto Sampler 736-2 and a pyrolysis tube with a ceramic liner (Antek Instruments Inc., Houston, Tex., U.S.A.). The frozen urinary samples were thawed and diluted 1:100 with 0.1 M HCl and then analysed. The urinary nitrogen values were then calculated as mg nitrogen excreted.
Total nitrogen in faeces was determined by an established Kjeldahl method (Kjeltec System, Tecator AB, Halsingborg, Sweden). The frozen faecal samples were thawed and dried in an oven at 60° C. overnight. The weight of the dried sample was noted and the sample then ground. 0.20 g of the milled faecal sample was mixed in a Kjeldahl digestion tube with 10.0 ml of concentrated sulphuric acid. 2.0 ml of a 30% solution of H2 O2 (30% Perhydrol, Merck, Darmstadt, Germany) was added and mixed carefully.

Male Sprague-Dawley rats [2] = assay: Example 1: dexamethasone-treated rats infused with saline, rhGH or rhIGF-I; body weight gain and nitrogen retention; format: in vivo, rat; conditions: for Retention of nitrogen (nitrogen balance): 8 days infusion with Dex, rhIGF-I 500 per day vs saline or rhGH
Description: On day zero the rats were anaesthetized intraperitoneally with 0.4 ml per 100 g body weight of a mixture of Rompun (20 mg·ml^-1), Ketalar (50 mg·ml^-1) and Saline (0.9%) in 1:2:3 volume proportions. The hair on the back of the rats was shaved off and the exposed skin carefully washed with 0.05% chlorhexidine (Pharmacia, Stockholm, Sweden) and 0.4% jodopax (Molnlycke, Goteborg, Sweden), both being diluted in 70% alcohol. Two mutually parallel incisions, each of 15 mm in length, were then made along the dorsal midline. The incisions penetrated the epidermis, dermis and subcutaneous muscle but left the deep fascia intact. Two subcutaneous pockets were made on both sides of the incisions by separating the subcutaneous muscle from the deep fascia. One (Exp. I) or two (Exp. 2) mini-pumps were implanted in each pocket. The wounds were closed with sutures 4-0 Johnson & Johnson). Osmotic mini-pumps (Alzet 2001, Alza Corporation, Palo Alto, USA) releasing 1 μl·h^-1 for 8 days were used for continuous delivery of hormones and Dex to the animals. The pumps were filled to a volume of 0.22 ml with solutions of rhGH (14.4 mg·ml^-1, Genotropin®, Pharmacia), rhIGF-I (20 mg·ml^-1, Igef®, Pharmacia, Kabi Peptide Hormones, Stockholm, Sweden), insulin (1.57 mg/ml, Actrapid®, Novo, Copenhagen, Denmark), Dex (1.04 mg·ml^-1, Decadron, Merck Sharp & Dohme International, […], USA) or Saline (0.9%). Two (Example 1) or four (Example 2) pumps combined as described above were implanted in each rat. Implantation of the pumps was performed under strictly aseptic conditions. Total feed intake was registered throughout the full 8 day experimental period. Urine and faeces were collected daily, pooled and kept at -20° C. until analysed. Excreta was collected by housing the animals in individual metabolism cages that were specially designed for the separation of urine and faeces. In order to inhibit urease-activity in the urine, 1 ml of 5% sulphuric acid was pipetted every morning in the collection vessels. The 24 hour collections of urine were pooled individually for each treatment period and immediately frozen after the collection. Similarly, the samples of faeces were also pooled individually for each treatment period and kept frozen (-20° C.) until analysis. Urea in serum was determined spectrophotometrically by using the Urea UV Uni-Kit II (Roche) with an autoanalyzer (Cobas Mira, Roche Co, Basel, Switzerland). Urea values were expressed in mmol/l. The total nitrogen content in urine was determined with the aid of the Antek Pyro-Chemilumicence Nitrogen System. The apparatus used comprised the […] nitrogen analyser with Liquid Auto Sampler 736-2 and a pyrolysis tube with a ceramic […] Instruments Inc., Houston, Tex., U.S.A.). The frozen urinary samples were thawed and diluted 1:100 with 0.1 M HCl and then analysed. The urinary nitrogen values were then calculated as mg nitrogen excreted. Total nitrogen in faeces was determined by an established Kjeldahl method (Kjeltec System, Tecator AB, Halsingborg, Sweden). The frozen faecal samples were thawed and dried in an oven at 60° C. overnight. The weight of the dried sample was noted and the sample then ground. 0.20 g of the milled faecal sample was mixed in a Kjeldahl digestion tube with 10.0 ml of concentrated sulphuric acid. 2.0 ml of a 30% solution of H2 O2 (30% Perhydrol, Merck, Darmstadt, Germany) was added and mixed carefully. One catalyst tablet (Kjeltabs C A, Thompson & Capper, Runcom, Cheshire, UK) was added to each sample. The mixture was digested at 380° C. for at least one hour or until complete bleaching of the sample was achieved. […] The faecal nitrogen values were calculated as mg nitrogen excreted. Data were subjected to a one-way analysis of variance in which the effect of treatment was considered the prime source of variation. Calculations were executed by the GLM procedure of the SAS program (SAS 1985). […]

[3] = 8 days s.c. mini-pump infusion, at every Dex dose (26, 13 or 6.5 per day), rhGH 360, rhIGF-I 500 per day, vs saline

Row | Molecule | Nitrogen balance / nitrogen wasting induced by dexamethasone (in words) (Male Sprague-Dawley rats [1]) | Relative nitrogen retention (retained N/digested N x 100) (Male Sprague-Dawley rats [1]) [%] | Nitrogen balance / nitrogen wasting induced by dexamethasone (in words) (Male Sprague-Dawley rats [1]; listed as GH) | Retention of nitrogen (nitrogen balance) (Male Sprague-Dawley rats [2]) | Body weight gain (Male Sprague-Dawley rats [2]; 8 days infusion, at the medium and high Dex infusion dose) | Body weight gain (Male Sprague-Dawley rats [2]; [3]) | Feed intake / feed consumption (in words) (Male Sprague-Dawley rats [1]) | Reduction of feed intake (Male Sprague-Dawley rats [1]; Dex 26 per day, 8 days)
1 | insulin: insulin (Actrapid, Novo) | without effect | 11.9 | – | – | – | – | – | –
2 | rhGH: recombinant human growth hormone (Genotropin, Pharmacia) | not found to counteract the nitrogen wasting induced by dexamethasone | 3.8 | without effect | followed the same pattern | negative values for body weight gain | the opposite effect | – | –
3 | C[C@@H]1C[C@H]2[C@@H]3CCC4=CC(=O)C=C[C@]4(C)[C@@]3(F)[C@@H](O)C[C@]2(C)[C@@]1(O)C(=O)CO [Dex, dexamethasone, reference compound] | decrease the nitrogen balance dramatically | 7.2 | – | – | – | general decrease with increased Dex dose | generally decreased feed intake | approximately 20%
4 | rhIGF-I: recombinant human insulin-like growth factor I (Igef, Pharmacia) | decreased significantly the wasting of nitrogen induced by dexamethasone | 23.0 | – | significantly (p<0.05) higher; also recorded: followed the same pattern | – | significantly (p<0.05) higher weight gain in comparison with saline; also recorded: significantly (p<0.05) increased | slightly stimulated feed consumption | –
